# Target: T1, TR α1 (Rattus norvegicus, UniProt P63059)
# T1 construct: made in house; host or cells: E. coli
# Assay: Receptor Binding Assays of TR Ligands ([125I]T3 displacement), TR α1
# T1 sequence (P63059 other isoform, or with tags, fused parts or gaps): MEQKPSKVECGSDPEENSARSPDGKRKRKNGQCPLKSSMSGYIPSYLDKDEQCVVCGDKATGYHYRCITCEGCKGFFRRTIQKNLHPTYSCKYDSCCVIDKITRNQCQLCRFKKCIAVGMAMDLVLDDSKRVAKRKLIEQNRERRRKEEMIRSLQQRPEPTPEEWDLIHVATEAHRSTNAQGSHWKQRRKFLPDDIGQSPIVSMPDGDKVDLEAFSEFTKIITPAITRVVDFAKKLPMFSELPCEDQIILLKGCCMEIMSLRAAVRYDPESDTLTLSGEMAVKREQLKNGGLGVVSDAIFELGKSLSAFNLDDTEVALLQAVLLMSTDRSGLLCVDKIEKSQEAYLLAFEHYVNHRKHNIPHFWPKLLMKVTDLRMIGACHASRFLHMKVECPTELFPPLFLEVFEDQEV
structure (smiles),measurement,value
"Cc1cc(OCC(=O)O)cc(C)c1Cc1ccc(O)c(C(C)C)c1 [GC1, [3,5-dimethyl-4-(4'-hydroxy-3'-isopropylbenzyl)-phenoxy] acetic acid]",IC50,0.02 µM

# Source: US5883294A, “Selective thyroid hormone analogs” (The Regeants of the University of California, priority 1997, dated 1999)
